Assay results reported in ChEMBL document CHEMBL1955797, “Discovery of vinylcycloalkyl-substituted benzimidazole TRPM8 antagonists effective in the treatment of cold allodynia” (Bioorg Med Chem Lett, 2012).
Values belong to the compound of their own block, whether it stands above or below them. Active and inactive are the calls of the source. The calls are words filed in the database; no cut-off is given here.

Assays:
[1] = biological target: Transient receptor potential M8 protein (Canis lupus familiaris, UniProt Q1A7N1); assay: Antagonist activity at dog TRPM8 expressed in HEK293 cells assessed as inhibition of icilin-induced calcium flux by FLIPR assay; format: functional, cell-based
Chain of Transient receptor potential M8 protein (Q1A7N1 whole entry): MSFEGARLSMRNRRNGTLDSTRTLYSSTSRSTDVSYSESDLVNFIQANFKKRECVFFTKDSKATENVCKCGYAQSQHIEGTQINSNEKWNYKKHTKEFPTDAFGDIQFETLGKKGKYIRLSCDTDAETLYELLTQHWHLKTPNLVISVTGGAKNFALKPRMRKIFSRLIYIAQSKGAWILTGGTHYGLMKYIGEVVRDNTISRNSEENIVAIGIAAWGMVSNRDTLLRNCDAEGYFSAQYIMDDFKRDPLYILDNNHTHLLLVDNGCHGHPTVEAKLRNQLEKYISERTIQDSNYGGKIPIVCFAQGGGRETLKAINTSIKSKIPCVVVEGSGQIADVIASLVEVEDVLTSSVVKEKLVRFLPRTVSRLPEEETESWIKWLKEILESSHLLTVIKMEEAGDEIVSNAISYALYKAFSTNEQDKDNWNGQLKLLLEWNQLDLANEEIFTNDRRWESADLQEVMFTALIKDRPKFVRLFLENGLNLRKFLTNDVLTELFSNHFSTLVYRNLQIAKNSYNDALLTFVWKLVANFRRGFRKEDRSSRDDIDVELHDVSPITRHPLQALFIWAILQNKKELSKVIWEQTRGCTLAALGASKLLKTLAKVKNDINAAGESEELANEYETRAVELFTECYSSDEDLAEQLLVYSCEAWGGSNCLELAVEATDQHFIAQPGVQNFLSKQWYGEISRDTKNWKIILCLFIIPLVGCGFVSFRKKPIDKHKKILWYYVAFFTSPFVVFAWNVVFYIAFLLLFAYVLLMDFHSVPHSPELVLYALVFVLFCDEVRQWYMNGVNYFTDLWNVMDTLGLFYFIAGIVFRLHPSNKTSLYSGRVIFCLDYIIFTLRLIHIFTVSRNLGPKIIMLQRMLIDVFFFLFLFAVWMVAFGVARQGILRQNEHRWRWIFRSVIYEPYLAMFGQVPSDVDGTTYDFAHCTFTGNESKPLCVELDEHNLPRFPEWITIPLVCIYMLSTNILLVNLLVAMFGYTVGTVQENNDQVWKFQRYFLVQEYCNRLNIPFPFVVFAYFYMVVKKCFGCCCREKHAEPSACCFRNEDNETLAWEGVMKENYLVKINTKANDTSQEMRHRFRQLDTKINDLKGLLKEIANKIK

[2] = Metabolic stability in rat liver microsomes assessed as compound remaining after 10 mins; format: ADME, Microsome; conditions: read-out: Stability
[3] = Metabolic stability in human liver microsomes assessed as compound remaining after 10 mins; format: ADME, Microsome; conditions: read-out: Stability
[4] = Metabolic stability in dog liver microsomes assessed as compound remaining after 10 mins; format: ADME, Canis lupus familiaris, Microsome; conditions: read-out: Stability
[5] = biological target: T1, Cytochrome P450 2C19 (Homo sapiens, UniProt P33261); assay: Inhibition of recombinant CYP2C19; format: ADME
T1 sequence (P33261 whole entry): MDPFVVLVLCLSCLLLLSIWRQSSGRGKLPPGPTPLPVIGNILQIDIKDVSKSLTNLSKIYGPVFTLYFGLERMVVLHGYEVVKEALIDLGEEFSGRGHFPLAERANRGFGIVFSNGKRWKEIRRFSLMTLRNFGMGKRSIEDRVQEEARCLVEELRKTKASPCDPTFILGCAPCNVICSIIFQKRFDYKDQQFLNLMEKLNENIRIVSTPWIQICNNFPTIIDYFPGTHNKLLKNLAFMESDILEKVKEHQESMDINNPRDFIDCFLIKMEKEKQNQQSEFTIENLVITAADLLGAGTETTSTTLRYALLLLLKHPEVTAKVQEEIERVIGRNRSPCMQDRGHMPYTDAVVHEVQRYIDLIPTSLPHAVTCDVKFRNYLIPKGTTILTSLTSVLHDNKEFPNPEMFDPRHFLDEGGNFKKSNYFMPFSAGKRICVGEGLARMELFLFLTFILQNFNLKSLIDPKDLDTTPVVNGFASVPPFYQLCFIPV

[6] = Clearance in rat at 10 mg/kg; format: ADME, organism-based; design: dose 10 mg/kg; conditions: in vivo
[7] = biological target: Transient receptor potential cation channel subfamily M member 8 (Rattus norvegicus, UniProt Q8R455); assay: Antagonist activity at rat TRPM8 by calcium flux assay; format: functional
Chain of Transient receptor potential cation channel subfamily M member 8 (Rattus norvegicus, UniProt Q8R455) (Q8R455 whole entry): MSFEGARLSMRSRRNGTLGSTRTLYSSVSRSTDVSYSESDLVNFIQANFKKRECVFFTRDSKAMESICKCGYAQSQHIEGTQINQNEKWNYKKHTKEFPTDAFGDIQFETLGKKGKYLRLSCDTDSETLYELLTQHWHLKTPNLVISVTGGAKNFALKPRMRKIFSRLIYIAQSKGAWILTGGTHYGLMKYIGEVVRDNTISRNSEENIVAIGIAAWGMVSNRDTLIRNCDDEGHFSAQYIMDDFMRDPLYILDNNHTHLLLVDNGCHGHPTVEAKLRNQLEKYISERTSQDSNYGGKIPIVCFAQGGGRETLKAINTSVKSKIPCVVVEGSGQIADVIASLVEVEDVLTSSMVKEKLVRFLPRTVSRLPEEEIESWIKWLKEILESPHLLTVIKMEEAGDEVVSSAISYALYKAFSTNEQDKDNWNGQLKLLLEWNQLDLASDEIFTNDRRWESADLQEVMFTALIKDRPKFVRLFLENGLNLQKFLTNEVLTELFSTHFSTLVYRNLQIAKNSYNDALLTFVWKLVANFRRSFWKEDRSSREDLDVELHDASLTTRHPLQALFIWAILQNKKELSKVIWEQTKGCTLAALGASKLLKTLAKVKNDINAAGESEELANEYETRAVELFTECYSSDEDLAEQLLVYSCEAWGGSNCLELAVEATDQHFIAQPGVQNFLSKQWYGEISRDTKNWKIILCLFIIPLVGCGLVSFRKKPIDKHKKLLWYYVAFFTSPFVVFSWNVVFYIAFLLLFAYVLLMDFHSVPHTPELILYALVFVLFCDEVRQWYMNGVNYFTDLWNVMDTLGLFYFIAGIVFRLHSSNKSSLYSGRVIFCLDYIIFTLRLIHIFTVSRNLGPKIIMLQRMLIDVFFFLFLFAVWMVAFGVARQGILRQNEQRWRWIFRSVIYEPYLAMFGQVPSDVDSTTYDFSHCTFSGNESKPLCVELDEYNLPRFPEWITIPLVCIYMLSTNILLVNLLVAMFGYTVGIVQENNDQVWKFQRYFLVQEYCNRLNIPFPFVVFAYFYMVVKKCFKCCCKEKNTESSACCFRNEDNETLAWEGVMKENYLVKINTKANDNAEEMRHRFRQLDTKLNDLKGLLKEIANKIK

[8] = tested on: Rattus norvegicus; assay: Antiallodynic activity against chronic constriction injury cold allodynia in rat assessed as inhibition of cold hypersensitivity at 10 mg/kg, po measured after 2 to 3 hrs post dosing; format: functional
[9] = Tmax in rat at 10 mg/kg; format: ADME, organism-based; design: dose 10 mg/kg; conditions: in vivo
[10] = biological target: Cytochrome P450 2C9 (Homo sapiens, UniProt P11712); assay: Inhibition of recombinant CYP2C9; format: ADME
[11] = biological target: T2, Cytochrome P450 3A4 (Homo sapiens, UniProt P08684); assay: Inhibition of CYP3A4 in human liver microsomes; format: ADME, Microsome
T2 sequence (P08684 whole entry): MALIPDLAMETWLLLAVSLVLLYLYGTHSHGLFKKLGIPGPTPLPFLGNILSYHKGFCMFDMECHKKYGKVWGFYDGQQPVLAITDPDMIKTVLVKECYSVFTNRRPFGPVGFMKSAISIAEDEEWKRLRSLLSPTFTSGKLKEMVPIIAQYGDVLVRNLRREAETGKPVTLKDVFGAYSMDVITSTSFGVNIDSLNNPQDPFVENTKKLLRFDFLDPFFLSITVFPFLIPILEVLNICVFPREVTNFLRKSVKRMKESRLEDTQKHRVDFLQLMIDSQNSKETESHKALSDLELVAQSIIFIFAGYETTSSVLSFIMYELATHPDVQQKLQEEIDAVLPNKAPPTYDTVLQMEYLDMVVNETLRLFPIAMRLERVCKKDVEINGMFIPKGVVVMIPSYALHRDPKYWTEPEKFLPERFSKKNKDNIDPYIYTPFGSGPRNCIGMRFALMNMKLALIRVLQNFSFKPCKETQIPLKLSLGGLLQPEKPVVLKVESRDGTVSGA

[12] = Volume of distribution at steady state in rat at 10 mg/kg; format: ADME, organism-based; design: dose 10 mg/kg; conditions: in vivo, read-out: Vdss
[13] = tested on: Rattus norvegicus; assay: Antiallodynic activity against chronic constriction injury cold allodynia in rat assessed as inhibition of cold hypersensitivity at 10 mg/kg, po measured after 4 hrs post dosing; format: functional, organism-based; design: dose 10 mg/kg
[14] = biological target: T3, Cytochrome P450 1A2 (Homo sapiens, UniProt P05177); assay: Inhibition of recombinant CYP1A2; format: ADME
T3 sequence (P05177 whole entry): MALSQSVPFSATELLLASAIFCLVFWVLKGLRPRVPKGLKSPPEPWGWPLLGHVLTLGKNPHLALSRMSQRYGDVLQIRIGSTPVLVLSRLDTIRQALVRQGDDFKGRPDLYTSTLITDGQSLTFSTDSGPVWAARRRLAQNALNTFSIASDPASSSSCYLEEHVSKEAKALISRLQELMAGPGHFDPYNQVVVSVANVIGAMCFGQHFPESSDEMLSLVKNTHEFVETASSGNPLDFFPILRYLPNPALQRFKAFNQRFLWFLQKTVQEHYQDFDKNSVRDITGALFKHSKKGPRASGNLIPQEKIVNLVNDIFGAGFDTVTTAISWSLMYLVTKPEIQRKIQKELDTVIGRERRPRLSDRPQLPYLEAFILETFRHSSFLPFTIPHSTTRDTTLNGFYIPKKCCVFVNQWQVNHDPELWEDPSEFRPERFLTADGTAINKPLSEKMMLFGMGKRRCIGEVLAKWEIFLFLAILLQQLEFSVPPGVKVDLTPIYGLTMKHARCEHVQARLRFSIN

[15] = tested on: Rattus norvegicus; assay: Antiallodynic activity against chronic constriction injury cold allodynia in rat assessed as inhibition of cold hypersensitivity at 30 mg/kg, po measured after 2 to 3 hrs post dosing; format: functional
[16] = Cmax in rat at 10 mg/kg; format: ADME, organism-based; design: dose 10 mg/kg; conditions: in vivo
[17] = tested on: Liver microsomes; assay: Metabolic stability in human liver microsomes assessed as CYP3A4-mediated glutathione adduct formation by glutathione conjugation assay; format: ADME, Microsome
[18] = biological target: Cytochrome P450 2D6 (Homo sapiens, UniProt P10635); assay: Inhibition of recombinant CYP2D6; format: ADME
Chain of Cytochrome P450 2D6 (P10635 whole entry): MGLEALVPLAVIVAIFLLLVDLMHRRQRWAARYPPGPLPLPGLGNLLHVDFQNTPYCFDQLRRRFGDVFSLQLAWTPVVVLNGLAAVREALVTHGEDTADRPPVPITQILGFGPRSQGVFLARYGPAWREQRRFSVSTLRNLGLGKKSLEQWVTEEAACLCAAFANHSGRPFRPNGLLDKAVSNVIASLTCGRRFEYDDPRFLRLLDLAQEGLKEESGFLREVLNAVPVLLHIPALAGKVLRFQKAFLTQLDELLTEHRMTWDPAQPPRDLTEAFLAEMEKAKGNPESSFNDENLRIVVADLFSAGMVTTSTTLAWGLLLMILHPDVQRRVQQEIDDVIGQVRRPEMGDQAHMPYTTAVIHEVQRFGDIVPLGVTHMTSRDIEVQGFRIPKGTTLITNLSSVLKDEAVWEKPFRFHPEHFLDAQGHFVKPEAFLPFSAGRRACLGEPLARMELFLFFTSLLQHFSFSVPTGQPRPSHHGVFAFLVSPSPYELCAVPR

[19] = Oral bioavailability in rat at 10 mg/kg; format: ADME, organism-based; conditions: in vivo
[20] = tested on: Rattus norvegicus; assay: Antiallodynic activity against chronic constriction injury cold allodynia in rat assessed as inhibition of cold hypersensitivity at 10 mg/kg, po measured after 2 hrs post dosing; format: functional, organism-based; design: dose 10 mg/kg
[21] = Half life in rat at 10 mg/kg; format: ADME, organism-based; design: dose 10 mg/kg; conditions: in vivo
[22] = biological target: CYP2C9 (Homo sapiens, UniProt P11712); assay: Inhibition of CYP2C9 in human liver microsomes at 3.3 uM; format: ADME, Microsome
[23] = biological target: T1, Cytochrome P450 2C19; assay: Inhibition of CYP2C19 in human liver microsomes; format: ADME, Microsome
[24] = tested on: Rattus norvegicus; assay: Inhibition of icilin-induced wet dog shakes behavior in po dosed rat administered 60 mins prior to icilin challenge; format: functional
[25] = biological target: T2, Cytochrome P450 3A4; assay: Inhibition of recombinant CYP3A4; format: ADME
[26] = biological target: Transient receptor potential cation channel subfamily M member 8 (Homo sapiens, UniProt Q7Z2W7); assay: Antagonist activity at human TRPM8 by calcium flux assay; format: functional
Chain of Transient receptor potential cation channel subfamily M member 8 (Homo sapiens, UniProt Q7Z2W7) (Q7Z2W7 whole entry): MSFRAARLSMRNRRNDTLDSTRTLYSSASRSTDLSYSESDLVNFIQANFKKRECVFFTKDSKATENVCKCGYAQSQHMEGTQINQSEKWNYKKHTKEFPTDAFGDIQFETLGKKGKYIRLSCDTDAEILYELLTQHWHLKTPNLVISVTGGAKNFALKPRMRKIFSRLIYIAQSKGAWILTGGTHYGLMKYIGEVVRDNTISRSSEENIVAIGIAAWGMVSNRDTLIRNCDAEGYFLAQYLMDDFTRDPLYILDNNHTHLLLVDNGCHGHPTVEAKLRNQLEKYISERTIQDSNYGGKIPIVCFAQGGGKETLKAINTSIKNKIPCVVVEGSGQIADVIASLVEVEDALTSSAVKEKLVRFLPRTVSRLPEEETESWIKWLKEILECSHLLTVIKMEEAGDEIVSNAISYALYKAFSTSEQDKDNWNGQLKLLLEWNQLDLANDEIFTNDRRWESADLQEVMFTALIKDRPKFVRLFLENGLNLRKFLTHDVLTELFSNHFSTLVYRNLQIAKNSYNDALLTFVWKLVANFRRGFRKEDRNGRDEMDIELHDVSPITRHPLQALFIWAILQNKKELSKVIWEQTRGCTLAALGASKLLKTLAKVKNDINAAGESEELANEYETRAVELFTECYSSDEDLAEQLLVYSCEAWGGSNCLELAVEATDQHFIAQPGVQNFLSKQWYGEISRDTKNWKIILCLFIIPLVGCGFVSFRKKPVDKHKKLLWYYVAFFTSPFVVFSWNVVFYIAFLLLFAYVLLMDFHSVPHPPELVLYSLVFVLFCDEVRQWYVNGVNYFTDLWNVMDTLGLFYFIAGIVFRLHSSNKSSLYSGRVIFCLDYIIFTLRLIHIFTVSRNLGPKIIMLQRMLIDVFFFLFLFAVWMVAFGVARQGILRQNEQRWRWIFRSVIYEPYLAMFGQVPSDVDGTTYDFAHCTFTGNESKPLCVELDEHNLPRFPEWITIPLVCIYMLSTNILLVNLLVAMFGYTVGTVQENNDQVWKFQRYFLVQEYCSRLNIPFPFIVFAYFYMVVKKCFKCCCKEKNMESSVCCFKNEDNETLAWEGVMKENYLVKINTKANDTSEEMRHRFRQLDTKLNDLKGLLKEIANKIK

[27] = biological target: Transient receptor potential M8 protein (Canis lupus familiaris) (UniProt Q1A7N1); assay: Antagonist activity at dog TRPM8 expressed in human HEK293 cells assessed as inhibition of icilin-induced calcium flux at 0.2 uM by FLIPR assay; format: functional, cell-based
Chain of Transient receptor potential M8 protein (Canis lupus familiaris) (Q1A7N1 1-1104): as the sequence (Q1A7N1 whole entry) above

SMILES: COc1ccccc1-c1ccc2[nH]c(/C=C/C3CCCCC3)nc2c1
IC50 [1]: 8.9 nM
remaining at 10 min [2]: 10%
remaining at 10 min [3]: 62%

SMILES: CC1(/C=C/c2nc3cc(-c4ccccc4C(F)(F)F)ccc3[nH]2)CCC(F)(F)CC1
remaining at 10 min [4]: 28%
IC50 [1]: 8.9 nM
remaining at 10 min [2]: 84%
remaining at 10 min [3]: 97%

SMILES: FC(F)(F)c1ccccc1-c1ccc2[nH]c(/C=C/C3CCCCC3)nc2c1
IC50 [5]: > 10000 nM
clearance [6]: 22 mL/min/kg
IC50 [7]: 20 nM
remaining at 10 min [4]: 20%
inhibition in vivo at 10 mg/kg [8]: 90%
Tmax [9]: 1.6 h
IC50 [10]: 3500 nM
IC50 [11]: > 30000 nM
IC50 [1]: 11 nM
Vd [12]: 9.5 L/kg
Activity [13]: Active
IC50 [14]: > 10000 nM
inhibition in vivo at 30 mg/kg [15]: 90%
Cmax [16]: 225 ng/mL
Stability [17]: Stable
IC50 [18]: > 10000 nM
bioavailability [19]: 14%
Activity [20]: Active
half-life [21]: 2.9 h
inhibition at 3.3 µM [22]: 62%
remaining at 10 min [2]: 58%
IC50 [23]: > 30000 nM
ED50 [24]: 6.4 mg/kg
inhibition [24]: Dose-dependent effect
remaining at 10 min [3]: 85%
IC50 [25]: 3500 nM
IC50 [26]: 15 nM

SMILES: Fc1cccc(C(F)(F)F)c1-c1ccc2[nH]c(/C=C/C3CCCCC3)nc2c1
remaining at 10 min [4]: 42%
IC50 [1]: 8.6 nM
remaining at 10 min [2]: 66%
remaining at 10 min [3]: 67%

SMILES: CN1CCC(/C=C/c2nc3cc(-c4ccccc4C(F)(F)F)ccc3[nH]2)CC1
inhibition [27]: 1%

SMILES: O=S1(=O)CCC(/C=C/c2nc3cc(-c4ccccc4C(F)(F)F)ccc3[nH]2)CC1
remaining at 10 min [4]: 60%
inhibition [27]: 63%
remaining at 10 min [2]: 74%
remaining at 10 min [3]: 91%

SMILES: FC(F)(F)c1ccccc1-c1ccc2[nH]c(/C=C/C3CCSCC3)nc2c1
remaining at 10 min [4]: 8%
remaining at 10 min [2]: 6%
remaining at 10 min [3]: 67%

SMILES: Clc1ccccc1-c1ccc2[nH]c(/C=C/C3CCCCC3)nc2c1
IC50 [1]: 8.9 nM
remaining at 10 min [2]: 39%
remaining at 10 min [3]: 71%

SMILES: FC(F)(F)c1cccc(C(F)(F)F)c1-c1ccc2[nH]c(/C=C/C3CCCCC3)nc2c1
remaining at 10 min [4]: 61%
IC50 [1]: 12.3 nM
remaining at 10 min [2]: 44%
remaining at 10 min [3]: 56%

SMILES: FC(F)(F)Oc1ccccc1-c1ccc2[nH]c(/C=C/C3CCCCC3)nc2c1
remaining at 10 min [2]: 91%
remaining at 10 min [3]: 71%

More lines, now with the values ahead:

remaining at 10 min [4]: 35%
IC50 [1]: 8.9 nM
remaining at 10 min [2]: 20%
remaining at 10 min [3]: 62%
SMILES: CC1(/C=C/c2nc3cc(-c4ccccc4C(F)(F)F)ccc3[nH]2)CCOCC1

remaining at 10 min [4]: 13%
IC50 [1]: 7.1 nM
remaining at 10 min [2]: 15%
remaining at 10 min [3]: 77%
SMILES: Cc1ccccc1-c1ccc2[nH]c(/C=C/C3CCCCC3)nc2c1

remaining at 10 min [4]: 39%
IC50 [1]: 21 nM
remaining at 10 min [2]: 100%
remaining at 10 min [3]: 47%
SMILES: FC1(F)CCC(/C=C/c2nc3cc(-c4ccccc4C(F)(F)F)ccc3[nH]2)CC1

remaining at 10 min [4]: 42%
IC50 [1]: 38 nM
remaining at 10 min [2]: 72%
remaining at 10 min [3]: 90%
SMILES: FC(F)(F)c1cccnc1-c1ccc2[nH]c(/C=C/C3CCCCC3)nc2c1

IC50 [1]: 110 nM
SMILES: C(=C\C1CCCCC1)/c1nc2cc(-c3ccccc3)ccc2[nH]1

remaining at 10 min [4]: 98%
inhibition [27]: 16%
remaining at 10 min [2]: 86%
remaining at 10 min [3]: 99%
SMILES: FC(F)(F)c1ccccc1-c1ccc2[nH]c(/C=C/C3CCNCC3)nc2c1

IC50 [1]: 110 nM
remaining at 10 min [2]: 71%
remaining at 10 min [3]: 84%
SMILES: FC(F)(F)Oc1ccccc1-c1ccc2[nH]c(/C=C/C3CCCC3)nc2c1

remaining at 10 min [4]: 51%
IC50 [1]: 7.1 nM
remaining at 10 min [2]: 79%
remaining at 10 min [3]: 93%
SMILES: FC(F)(F)c1ccccc1-c1ccc2[nH]c(/C=C/C3CCOCC3)nc2c1

remaining at 10 min [4]: 100%
inhibition [27]: 1%
remaining at 10 min [2]: 85%
remaining at 10 min [3]: 100%
SMILES: CC(=O)N1CCC(/C=C/c2nc3cc(-c4ccccc4C(F)(F)F)ccc3[nH]2)CC1

remaining at 10 min [4]: 75%
inhibition [27]: 14%
SMILES: CS(=O)(=O)N1CCC(/C=C/c2nc3cc(-c4ccccc4C(F)(F)F)ccc3[nH]2)CC1

remaining at 10 min [4]: 75%
IC50 [1]: 21 nM
remaining at 10 min [2]: 34%
remaining at 10 min [3]: 98%
SMILES: Fc1ccccc1-c1ccc2[nH]c(/C=C/C3CCCCC3)nc2c1
